Experimental data taken from publication PMC8599861, “Structures of prokaryotic ubiquitin-like protein Pup in complex with depupylase Dop reveal the mechanism of catalytic phosphate formation” (Nature Communications, 2021).

Columns and labels:
[1] = target: T1, AcelDop (in complex with AcelPup deltaN43) (Acidothermus cellulolyticus, UniProt A0LU48); experiment: intact mass spectrometry of phosphorylated PupBSO; format: biochemical; conditions: 2 mM ATP, PupBSO deltaN43 as phosphoryl acceptor, 20 mM MgCl2, pH 8.0, 30 C
T1 construct: gene dop; C-terminal TEV-His6 tag cleaved, E. coli Rosetta (DE3); Pup fragment deltaN43 (PupQ, PupE or PupBSO) synthetic; with Prokaryotic ubiquitin-like protein Pup
T1 sequence (A0LU49 44-71 E71Q): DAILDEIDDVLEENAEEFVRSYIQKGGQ
T1 sequence (A0LU48 whole entry, the tested form may be a part): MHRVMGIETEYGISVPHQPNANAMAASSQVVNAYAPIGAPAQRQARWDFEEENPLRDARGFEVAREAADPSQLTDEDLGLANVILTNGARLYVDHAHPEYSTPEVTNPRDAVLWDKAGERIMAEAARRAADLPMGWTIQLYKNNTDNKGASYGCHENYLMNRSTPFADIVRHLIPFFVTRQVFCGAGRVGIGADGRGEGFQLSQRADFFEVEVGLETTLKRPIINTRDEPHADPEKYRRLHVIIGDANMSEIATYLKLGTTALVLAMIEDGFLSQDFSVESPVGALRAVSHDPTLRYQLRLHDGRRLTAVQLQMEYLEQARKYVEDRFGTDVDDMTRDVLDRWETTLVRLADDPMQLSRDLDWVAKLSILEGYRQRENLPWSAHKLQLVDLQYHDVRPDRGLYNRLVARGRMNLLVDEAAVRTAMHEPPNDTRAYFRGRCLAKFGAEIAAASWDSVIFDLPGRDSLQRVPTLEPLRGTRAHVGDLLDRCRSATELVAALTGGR

[2] = target: T1, AcelDop (in complex with AcelPup deltaN43); experiment: X-ray crystal structure, […] A; format: binding; conditions: co-crystal with PupQ deltaN43 and Mg2+; nucleotide site, about 72 % occupancy
[3] = target: T1, AcelDop (in complex with AcelPup deltaN43); experiment: X-ray crystal structures, […]-1.[…] A; format: binding; conditions: with PupE deltaN43 and MgF3(H2O)- (7OYF), phosphorylated PupE, Mg2+/K+ (7OY3; ADP formed in crystal soaked with ATP) or MgF4 2- (7OYH); nucleotide site

Nc1ncnc2c1ncn2[C@@H]1O[C@H](COP(=O)(O)OP(=O)(O)OP(=O)(O)O)[C@@H](O)[C@H]1O [ATP] was tested, and the “intact mass spectrometry of phosphorylated PupBSO” value [1] was “Dop indeed forms a phosphorylated PupBSO species in the presence of ATP”.
In the case of Nc1ncnc2c1ncn2[C@@H]1O[C@H](COP(=O)(O)OP(=O)(O)CP(=O)(O)O)[C@@H](O)[C@H]1O [AMP-PCP], the “X-ray crystal structure, 1.65 A” value [2] is reported as “crystals of the enzyme in complex with the PupQ fragment and AMP-PCP”.
For Nc1ncnc2c1ncn2[C@@H]1O[C@H](COP(=O)(O)OP(=O)(O)O)[C@@H](O)[C@H]1O [ADP], the “X-ray crystal structures, 1.75-1.88 A” value [3] was “We solved the structure of a Dop-Pup complex with a square planar MgFx species bound between ADP and Pup”.
